Results as given in patent publication US20250206745A1, “PYRROLOPYRIDAZINE DERIVATIVES AND RELATED USES” (NodThera Limited, priority 2023, published 2025).
pIC50: −log10 of the molar value. Counter-ions that a name gives are not always drawn.

Legend:
[1] = tested on: IL-1β release upon NLRP3 activation in phorbol 12-myristate 13-acetate (PMA)-differentiated THP-1 cells; test: THP-1 IC50 Determination Assay; type: cell-based; details: Homo sapiens, inhibition of IL-1β release, LPS, nigericin, ELISA
Protocol: The compounds of the present disclosure were tested for their inhibitory activity against IL-1β release upon NLRP3 activation in phorbol 12-myristate 13-acetate (PMA)-differentiated THP-1 cells.
THP-1 cells stored in liquid nitrogen were thawed in a 37° C. water bath. The cells were added into complete RPMI 1640 medium (FBS (56 mL), 100× Penicillin-Streptomycin (5.6 mL) and 0.05 mM 2-Mercaptoethanol in RPMI 1640 Medium (500 mL)) and centrifuged for 5 min at 1000 rpm. The supernatant was discarded and the cells resuspended into new cell culture medium for culturing. Cells were cultured in cell culture medium and passaged every 3-4 days to maintain cell density between 4×10^5 and 1.5×10^6 cells/mL. The cells were diluted to 0.8×10^6 cells/mL and grown in a T150 flask with PMA (final concentration 5 ng/mL). The flask was incubated in a 37° C. incubator with a humidified atmosphere of 5% CO2 for −40 hours. After −40 hours of PMA differentiation, the flask was washed with DPBS. Cells were digested with Trypsin LE for about 5 min at room temperature, and digestion was terminated using complete RPMI 1640 medium. Cells were centrifuged and resuspended (1000 rpm, 3 min). The supernatant was discarded and cells washed with DPBS, centrifuged and resuspended cells (1000 rpm, 5 min). Cells were plated at 30,000 cells/well in a 384-well PP plate and treated with 25 ng/mL LPS solution diluted in serum-free medium (45 μL). The plate was incubated in a 37° C. incubator with a humidified atmosphere of 5% CO2 for 2 hours. Compounds (from 10 mM DMSO solution) were dispensed and serially diluted by 1:3 eight times, with final 0.5% DMSO concentration. NLRP3 inflammasome was activated with nigericin (5 μL), the plate was centrifuged (1000 rpm, 30 s) and incubated in a 37° C. incubator with a humidified atmosphere of […] for 2 hours. 35 μL/well of supernatant was removed and IL-1β levels determined by ELISA assay (Mabtech 3416-1H-20) according to the manufacturer's instructions.

[2] = tested on: IL-1β release upon NLRP3 activation in peripheral blood mononuclear cells (PBMC); test: PBMC IC50 Determination Assay; type: cell-based; details: Homo sapiens; inhibition of IL-1β release; PBMC primed with LPS, stimulated with ATP or nigericin; ELISA or HTRF
Protocol: The compounds of the present disclosure were tested for their inhibitory activity against IL-1β release upon NLRP3 activation in peripheral blood mononuclear cells (PBMC).
Protocol A. PBMC were isolated from buffy coats by density gradient centrifugation on Histopaque-1077 (Sigma, cat no. 10771). Isolated cells were seeded into the wells of a 96-well plate and incubated for 3 h with lipopolysaccharide (LPS). Following medium exchange, the compounds of the present disclosure were added (a single compound per well) and the cells were incubated for 30 min. Next, the cells were stimulated either with ATP (5 mM) or nigericin (10 μM) for 1 h and the cell culture media from the wells were collected for further analysis.
The release of IL-1β into the media was determined by a quantitative detection of IL-1β in the media using an IL-1β enzyme-linked immunosorbent assay (ELISA) Ready-SET-Go!, eBioscience cat. No. 88-7261-88. Briefly, in a first step, high affinity binding plates (Corning, Costar 9018 or NUNC Maxisorp Cat No. 44-2404) were coated overnight at 4° C. with specific capture antibody included in the kit (anti-human IL-1β ref. 14-7018-68). Subsequently, plates were blocked with blocking buffer for 1 h at room temperature (rt) and after washing with a buffer (PBS with 0.05% Tween-20) incubated with protein standard and culture media. After 2 h of incubation at rt, plates were washed and incubated with biotinylated detection antibody included in the kit (anti-human IL-1β Biotin ref. 33-7110-68) for 1 h at rt. Plates were washed and incubated with HRP-streptavidin for 30 min at rt and washed again. The signal was developed after addition of 3,3′,5,5′-tetramethylbenzidine-peroxidase (TMB) until colour appeared and the reaction was stopped by 2 M H2SO4. A microplate spectrophotometer (BioTek) was used to detect signals with 450 nm. The detection range of IL-1β ELISA was […].
Protocol B. PBMC were isolated from buffy coats by density gradient centrifugation on Histopaque-1077 (Sigma, cat no. 10771). Isolated cells were seeded into the wells (280,000 cells/well) of a 96-well plate and incubated for 3 h with lipopolysaccharide (LPS, 1 μg/mL diluted 1000× from a 1 mg/mL stock solution). The compounds of the present disclosure were added (a single compound per well) and the cells were incubated for 30 min. Next, the cells were stimulated with ATP (5 mM final concentration diluted 20× from a 100 mM stock solution) for 1 h and the cell culture media from the wells were collected for further analysis.
The release of IL-1β into the media was determined by quantitative detection of IL-1β in the media using HTRF®, CisBio cat. No. 62HIL1BPEH. Briefly, cell culture supernatant were dispensed directly into the assay plate containing antibodies labelled with the HTRF® donor and acceptor. A microplate spectrophotometer (BMG) was used to detect signals at 655 nm and 620 nm. The detection range of IL-1β HTRF® was 39-6500 pg/mL.

Row | SMILES | pIC50 [1] | pIC50 [2]
1 | Cc1cc(Cl)cc(O)c1-c1cc2ccn(CC3CN(C)CCO3)c2nn1 (centres unmarked) [Compound 34, 5-Chloro-3-methyl-2-{7-[(4-methylmorpholin-2-yl)methyl]-7H-pyrrolo[2,3-c]pyridazin-3-yl}phenol hydrochloride] | 6.00 to 6.52 | 6.00 to 6.52
2 | Cc1cc(Cl)cc(O)c1-c1cc2ccn(CC3CCN(C)CC3(F)F)c2nn1 (centres unmarked) [Compound 35, 5-Chloro-2-{7-[(3,3-difluoro-1-methylpiperidin-4-yl)methyl]-7H-pyrrolo[2,3-c]pyridazin-3-yl}-3-methylphenol hydrochloride] | 6.00 to 6.52 | 6.52 to 7.00
3 | Cc1cc(Cl)cc(O)c1-c1cc2ccn(CC(=O)N3CCCCC3)c2nn1 [Compound 36, 2-[3-(4-Chloro-2-hydroxy-6-methylphenyl)-7H-pyrrolo[2,3-c]pyridazin-7-yl]-1-(piperidin-1-yl)ethan-1-one] | 6.00 to 6.52 | 6.00 to 6.52
4 | Cc1cc(Cl)cc(O)c1-c1cc2ccn(CC3CCOCC3)c2nn1 [Compound 37, 5-Chloro-3-methyl-2-{7-[(oxan-4-yl)methyl]-7H-pyrrolo[2,3-c]pyridazin-3-yl}phenol] | 6.00 to 6.52 | 6.52 to 7.00
5 | Cc1cc(Cl)cc(O)c1-c1cc2ccn(CCN3CCCCC3)c2nn1 [Compound 38, 5-Chloro-3-methyl-2-{7-[2-(piperidin-1-yl)ethyl]-7H-pyrrolo[2,3-c]pyridazin-3-yl}phenol hydrochloride] | 6.00 to 6.52 | 6.00 to 6.52
6 | Cc1cc(Cl)cc(O)c1-c1cc2ccn(CC3CCCN3C)c2nn1 (centres unmarked) [Compound 39, 5-Chloro-3-methyl-2-{7-[(1-methylpyrrolidin-2-yl)methyl]-7H-pyrrolo[2,3-c]pyridazin-3-yl}phenol hydrochloride] | 6.00 to 6.52 | 6.52 to 7.00
7 | Cc1cc(Cl)cc(O)c1-c1cc2ccn(CCN3CCCC3=O)c2nn1 [Compound 40, 1-{2-[3-(4-Chloro-2-hydroxy-6-methylphenyl)-7H-pyrrolo[2,3-c]pyridazin-7-yl]ethyl}pyrrolidin-2-one] | 5.52 to 6.00 | 5.52 to 6.00
8 | Cc1cc(Cl)cc(O)c1-c1cc2ccn(CC3COCCN3C)c2nn1 (centres unmarked) [Compound 41, 5-Chloro-3-methyl-2-{7-[(4-methylmorpholin-3-yl)methyl]-7H-pyrrolo[2,3-c]pyridazin-3-yl}phenol hydrochloride] | 6.00 to 6.52 | 6.52 to 7.00
9 | Cc1cc(Cl)cc(O)c1-c1cc2ccn(CC3CCCOC3)c2nn1 (centres unmarked) [Compound 42, 5-Chloro-3-methyl-2-{7-[(oxan-3-yl)methyl]-7H-pyrrolo[2,3-c]pyridazin-3-yl}phenol] | 6.00 to 6.52 | 6.52 to 7.00
10 | CC(=O)NCCn1ccc2cc(-c3c(C)cc(Cl)cc3O)nnc21 [Compound 44, N-{2-[3-(4-Chloro-2-hydroxy-6-methylphenyl)-7H-pyrrolo[2,3-c]pyridazin-7-yl]ethyl}acetamide] | 6.00 to 6.52 | 6.00 to 6.52
11 | Cc1cc(Cl)cc(O)c1-c1cc2ccn(CCN3CCC(=O)C3)c2nn1 [Compound 45, 1-{2-[3-(4-Chloro-2-hydroxy-6-methylphenyl)-7H-pyrrolo[2,3-c]pyridazin-7-yl]ethyl}pyrrolidin-3-one] | 6.00 to 6.52 | 6.00 to 6.52
12 | Cc1cc(Cl)cc(O)c1-c1cc2ccn(C[C@H]3CCCCN3C)c2nn1 [Compound 47, 5-Chloro-3-methyl-2-(7-{[(2R)-1-methylpiperidin-2-yl]methyl}-7H-pyrrolo[2,3-c]pyridazin-3-yl)phenol hydrochloride] | 6.00 to 6.52 | 6.52 to 7.00
13 | Cc1cc(Cl)cc(O)c1-c1cc2ccn(CC3CCN(C)C4(CC4)C3)c2nn1 (centres unmarked) [Compound 49, 5-Chloro-3-methyl-2-[7-({4-methyl-4-azaspiro[2.5]octan-7-yl}methyl)-7H-pyrrolo[2,3-c]pyridazin-3-yl]phenol hydrochloride] | 6.00 to 6.52 | 6.52 to 7.00
14 | Cc1cc(Cl)cc(O)c1-c1cc2ccn(C(=O)N3CCN(C)CC3)c2nn1 [Compound 50, 5-Chloro-3-methyl-2-[7-(4-methylpiperazine-1-carbonyl)-7H-pyrrolo[2,3-c]pyridazin-3-yl]phenol hydrochloride] | 6.00 to 6.52 | 5.00 to 5.52
15 | Cc1cc(C#N)cc(O)c1-c1cc2ccn(CC3CCN(C)CC3)c2nn1 [Compound 54, 3-Hydroxy-5-methyl-4-{7-[(1-methylpiperidin-4-yl)methyl]-7H-pyrrolo[2,3-c]pyridazin-3-yl}benzonitrile] | 6.00 to 6.52 | 6.52 to 7.00

More lines, main results first:

Row | pIC50 [1] | SMILES | pIC50 [2]
16 | 6.52 to 7.00 | Cc1cc(Cl)cc(O)c1-c1cc2ccn(CC3CCCO3)c2nn1 (centres unmarked) [Compound 43, 5-Chloro-3-methyl-2-{7-[(oxolan-2-yl)methyl]-7H-pyrrolo[2,3-c]pyridazin-3-yl}phenol] | 6.52 to 7.00
17 | 6.52 to 7.00 | Cc1cc(Cl)cc(O)c1-c1cc2ccn(C[C@@H]3CCCCN3C)c2nn1 [Compound 46, 5-Chloro-3-methyl-2-(7-{[(2S)-1-methylpiperidin-2-yl]methyl}-7H-pyrrolo[2,3-c]pyridazin-3-yl)phenol hydrochloride] | 7.00 to 7.52
18 | 6.52 to 7.00 | Cc1cc(Cl)cc(O)c1-c1cc2ccn(CC3COC3)c2nn1 [Compound 48, 5-Chloro-3-methyl-2-{7-[(oxetan-3-yl)methyl]-7H-pyrrolo[2,3-c]pyridazin-3-yl}phenol] | 6.52 to 7.00
19 | 6.52 to 7.00 | Cc1cc(Cl)cc(O)c1-c1cc2ccn(CC3CC4(C3)CN(C)C4)c2nn1 [Compound 52, 5-Chloro-3-methyl-2-[7-({2-methyl-2-azaspiro[3.3]heptan-6-yl}methyl)-7H-pyrrolo[2,3-c]pyridazin-3-yl]phenol hydrochloride] | 6.00 to 6.52
20 | 6.52 to 7.00 | CC(=O)N1CCCC(Cn2ccc3cc(-c4c(C)cc(Cl)cc4O)nnc32)C1 (centres unmarked) [Compound 53, 1-(3-{[3-(4-Chloro-2-hydroxy-6-methylphenyl)-7H-pyrrolo[2,3-c]pyridazin-7-yl]methyl}piperidin-1-yl)ethan-1-one] | 6.52 to 7.00
21 | 7.00 to 7.52 | Cc1cc(Cl)cc(O)c1-c1cc2ccn(CC3(C#N)CCN(C)CC3)c2nn1 [Compound 55, 4-{[3-(4-Chloro-2-hydroxy-6-methylphenyl)-7H-pyrrolo[2,3-c]pyridazin-7-yl]methyl}-1-methylpiperidine-4-carbonitrile] | 7.00 to 7.52
22 | > 7.52 | Cc1cc(Cl)cc(O)c1-c1cc2ccn(CC3(O)CCN(C)CC3)c2nn1 [Compound 56, 4-{[3-(4-Chloro-2-hydroxy-6-methylphenyl)-7H-pyrrolo[2,3-c]pyridazin-7-yl]methyl}-1-methylpiperidin-4-ol hydrochloride] | > 7.52
